The subject of the test is male Swiss albino mice. As to the kind of experiment: Determination of withdrawal symptoms (naloxone-induced jumps and shakes in opioid-dependent mice). The test is classed as in vivo. The procedure:
Pharmacodyn, 1971, 190, pages 213-218 in male Swiss albino mice (weight 20-25 g, Harlan Iberica, S. Feliu de Codinas, Barcelona, Spain).
Opioid dependency is developed in the mice by intraperitoneal administration of the opioid in a suitable dose known to those skilled in the art, e.g. 5 mg/kg/day for 4 consecutive days for morphine. Withdrawal symptoms are then induced by the intravenous administration of a suitable opioid antagonist in a dose known to those skilled in the art, for example, 2 mg/kg naloxone in case of morphine, 30 minutes after the administration of the final dose of the opioid is completed.
In the 30 minute period following the naloxone administration the mice show typical withdrawal symptoms, namely jumps and shakes (of the wet dog shake type), which are counted and registered.
The active substance is administered in combination with the opioid to the mice for 4 consecutive days. After the administration of 2 mg/kg naloxone 30 minutes after the administration of the final dose of the active substance in combination with the opioid has been completed, the mice are closely watched for withdrawal symptoms, namely jumps and shakes (of the wet dog shake type), which are then counted and registered.
The influence of the active substance in combination with an opioid on withdrawal symptoms has been determined as described above.

On to `CN(C)CCOC(c1ccccc1)c1ccnn1C.O=C(O)CC(O)(CC(=O)O)C(=O)O` (racemic) [Example 1, (±)-5-{α-[2-(dimethylamino)ethoxy]benzyl}-1-methyl-1H-pirazole citrate], for which the “withdrawal symptoms usually associated with the administration of opioids (morphine)” value (co-administration with morphine, administered amount of the opioid not reduced, mice) is listed as “significantly reduced”.

Consider `CN1CC[C@]23c4c5ccc(O)c4O[C@H]2[C@@H](O)C=C[C@H]3[C@H]1C5` [Morphine], for which the “Number of Jumps” value (morphine 5 mg/kg/day s.c. over 4 days, 2 mg/kg naloxone 30 min after final dose, counted in the following 30 minute period) worked out at 6.6. The Number of shakes (morphine 5 mg/kg/day s.c. over 4 days, 2 mg/kg naloxone 30 min after final dose, wet dog shake type, counted in the following 30 minute period) worked out at 16.3.

The values are drawn from US20080200693A1, “Derivatives of Aryl (or Heteroaryl) Azolylcarbinols (in Particular Cizolirtin Citrate) for the Treatment of Opioid Addiction” (LABORATORIOS DEL DR. ESTEVE S.A., priority 2004, published 2008).
